The target in the assay is T1, MAGL (Homo sapiens, UniProt Q99685).
T1 sequence (Q99685 1-303): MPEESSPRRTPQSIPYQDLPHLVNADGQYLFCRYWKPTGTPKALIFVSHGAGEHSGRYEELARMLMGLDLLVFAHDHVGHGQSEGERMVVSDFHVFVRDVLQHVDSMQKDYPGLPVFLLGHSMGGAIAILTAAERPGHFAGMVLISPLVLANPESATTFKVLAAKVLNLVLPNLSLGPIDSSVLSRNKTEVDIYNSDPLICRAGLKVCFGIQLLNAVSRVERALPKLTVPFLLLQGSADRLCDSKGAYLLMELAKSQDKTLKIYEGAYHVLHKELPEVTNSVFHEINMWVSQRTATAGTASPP
The assay is described as follows: 2-AG assay (MAGL inhibitory activity, hydrolysis of 2-arachidonoylglycerol followed by mass spectrometry). The format is biochemical. The settings on record: 50 pM MAGL, 8 μM 2-arachidonoylglycerol, 15 min preincubation, 30 min incubation at RT, concentration range 12.5 μM to 0.8 pM. The method, boiled down: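 Activity derived from the arachidonic acid/d8-arachidonic acid MS intensity ratio after acetonitrile quench. Reaction: 8 μM 2-AG substrate with 50 pM MAGL, 30 min at RT, following 15 min RT compound preincubation; buffer 50 mM TRIS, 1 mM EDTA, 0.01% Tween; final compound range 12.5 μM to 0.8 pM.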

For `O=C1N[C@H](CCC(=O)N2CC(c3ccc(C4CC(C(F)(F)F)C4)cc3)C2)CO1` (stereo partly drawn) [Example 133, (4R)-4-[3-Oxo-3-[3-[4-[3-(trifluoro-methyl)cyclobutyl]phenyl]azetidin-1-yl]propyl]oxazolidin-2-one], the half-inhibitory concentration (IC50) (as a rule, the concentration at which inhibition is half-maximal) turned out to be 2 nM.
As to `O=C1N[C@H](CCC(=O)N2CC(c3ccc(N4CC(C(F)(F)F)C4)c(F)c3)C2)CO1` [Example 134, (4R)-4-[3-[3-[3-Fluoro-4-[3-(trifluoromethyl)azetidin-1-yl]phenyl]azetidin-1-yl]-3-oxo-propyl] oxazolidin-2-one], the IC50 is 16 nM.
Then `O=C1N[C@H](CCC(=O)N2CC(c3ccc(N4CCC(C(F)(F)F)C4)cc3)C2)CO1` (stereo partly drawn) [Example 135, (4R)-4-[3-Oxo-3-[3-[4-[3-(trifluoro-methyl)pyrrolidin-1-yl]phenyl]azetidin-1-yl]propyl] oxazolidin-2-one], with 5 nM.
In turn, `O=C1N[C@H](CCC(=O)N2CC3(CCC(Oc4ccc(C(F)(F)F)nn4)CC3)C2)CO1` [Example 136, (4R)-4-[3-Oxo-3-[7-[6-(trifluoro-methyl)pyridazin-3-yl]oxy-2-azaspiro[3.5]nonan-2-yl]propyl] oxazolidin-2-one] displayed an IC50 of 22 nM.
The result for `CS(=O)(=O)c1cc(F)ccc1OC1CCC2(CC1)CN(C(=O)CC[C@@H]1COC(=O)N1)C2` [Example 137, (4R)-4-[3-[7-(4-Fluoro-2-methyl-sulfonyl-phenoxy)-2-azaspiro[3.5]nonan-2-yl]-3-oxo-propyl] oxazolidin-2-one] reads 43 nM.
Then `O=C1N[C@H](CCC(=O)N2CC3(CCC(NS(=O)(=O)c4cccc(OC(F)(F)F)c4)CC3)C2)CO1` [Example 138, N-[2-[3-[(4R)-2-Oxooxazolidin-4-yl]propanoyl]-2-azaspiro[3.5]nonan-7-yl]-3-(trifluoro-methoxy)benzene-sulfonamide], with 62 nM; and `O=C1N[C@H](CCC(=O)N2CC(c3cnc(N4CC5(C4)CC(F)(F)C5)cn3)C2)CO1` [Example 139, (4R)-4-[3-[3-[5-(6,6-Difluoro-2-azaspiro[3.3]heptan-2-yl)pyrazin-2-yl]azetidin-1-yl]-3-oxo-propyl]oxazolidin-2-one], with 123 nM; and `O=C1N[C@H](CCC(=O)N2CC(c3cnc(N4CC5(CCCC5)C4)cn3)C2)CO1` [Example 140, (4R)-4-[3-[3-[5-(2-Azaspiro[3.4]octan-2-yl)pyrazin-2-yl]azetidin-1-yl]-3-oxo-propyl]oxazolidin-2-one], with 28 nM.
In the case of `O=C1N[C@H](CCC(=O)N2CC(c3ccc(N4CC5(C4)CC(F)(F)C5)nc3)C2)CO1` [Example 141, (4R)-4-[3-[3-[6-(6,6-Difluoro-2-azaspiro[3.3]heptan-2-yl)-3-pyridyl]azetidin-1-yl]-3-oxo-propyl]oxazolidin-2-one], the IC50 stood at 78 nM. Against the preceding compound, the IC50 is about 2.8-fold higher.
The result for `O=C1N[C@H](CCC(=O)N2CC(c3ccc(N4CC5(CCCC5)C4)nc3)C2)CO1` [Example 142, (4R)-4-[3-[3-[6-(2-Azaspiro[3.4]octan-2-yl)-3-pyridyl]azetidin-1-yl]-3-oxo-propyl]oxazolidin-2-one] reads 13 nM.
In turn, `O=C1N[C@H](CCC(=O)N2CC3(CCN(S(=O)(=O)c4ccc(C(F)(F)F)cc4F)CC3)C2)CO1` [Example 143, (4R)-4-[3-[7-[2-Fluoro-4-(trifluoromethyl)phenyl]sulfonyl-2,7-diazaspiro [3.5]nonan-2-yl]-3-oxo-propyl]oxazolidin-2-one] came in with an IC50 of 190 nM.
Compound `O=C1N[C@H](CCC(=O)N2CC(c3ccc(N4CC(O)(C(F)(F)F)C4)nc3)C2)CO1` [Example 144, (4R)-4-[3-[3-[6-[3-Hydroxy-3-(trifluoro-methyl)azetidin-1-yl]-3-pyridyl]azetidin-1-yl]-3-oxo-propyl]oxazolidin-2-one] showed an IC50 of 172 nM.
Then `Cc1cc(C)n(-c2ccc(C3CN(C(=O)CC[C@@H]4COC(=O)N4)C3)cc2)n1` [Example 145, (4R)-4-[3-[3-[4-(3,5-Dimethyl-pyrazol-1-yl)phenyl]azetidin-1-yl]-3-oxo-propyl]oxazolidin-2-one], with 73 nM.
Then `O=C1N[C@H](CCC(=O)N2CC(c3ccc(N4CCC(O)(C(F)(F)F)C4)nc3)C2)CO1` (stereo partly drawn) [Example 146, (4R)-4-[3-[3-[6-[3-Hydroxy-3-(trifluoro-methyl)pyrrolidin-1-yl]-3-pyridyl]azetidin-1-yl]-3-oxo-propyl] oxazolidin-2-one], with 137 nM; and `O=C1N[C@H](CCC(=O)N2CC3(C2)CN(S(=O)(=O)c2ccc(C(F)(F)F)cc2)C3)CO1` [Example 147, (4R)-4-[3-Oxo-3-[2-[4-(trifluoromethyl)phenyl]sulfonyl-2,6-diazaspiro [3.3]heptan-6-yl]propyl] oxazolidin-2-one], with 2270 nM.
Then `O=C1N[C@H](CCC(=O)N2CC3(C2)CN(S(=O)(=O)c2ccccc2OC(F)(F)F)C3)CO1` [Example 148, (4R)-4-[3-Oxo-3-[2-[2-(trifluoro-methoxy)phenyl]sulfonyl-2,6-diazaspiro[3.3]heptan-6-yl]propyl]oxazolidin-2-one], with 498 nM.
For `O=C1N[C@H](CCC(=O)N2CC3(C2)CN(S(=O)(=O)c2cccc(OC(F)(F)F)c2)C3)CO1` [Example 149, (4R)-4-[3-Oxo-3-[2-[3-(trifluoro-methoxy)phenyl]sulfonyl-2,6-diazaspiro[3.3]heptan-6-yl]propyl]oxazolidin-2-one], the IC50 came out at 976 nM.
The result for `O=C1N[C@H](CCC(=O)N2CC3(C2)CN(S(=O)(=O)c2ccc(OC(F)(F)F)cc2)C3)CO1` [Example 150, (4R)-4-[3-Oxo-3-[2-[4-(trifluoro-methoxy)phenyl]sulfonyl-2,6-diazaspiro[3.3]heptan-6-yl]propyl] oxazolidin-2-one] reads 2140 nM; that for `O=C1N[C@H](CCC(=O)N2CC3(CC(Nc4ccc(C(F)(F)F)nn4)C3)C2)CO1` [Example 151, (4R)-4-[3-Oxo-3-[6-[[6-(trifluoro-methyl)pyridazin-3-yl]amino]-2-azaspiro[3.3]heptan-2-yl]propyl] oxazolidin-2-one], 1240 nM; that for `O=C1N[C@H](CCC(=O)N2CC3(CC(Oc4ccc(C(F)(F)F)nn4)C3)C2)CO1` [Example 152, (4R)-4-[3-Oxo-3-[6-[6-(trifluoro-methyl)pyridazin-3-yl]oxy-2-azaspiro[3.3]heptan-2-yl]propyl] oxazolidin-2-one], 1410 nM.
Then `NS(=O)(=O)c1ccccc1CN1CC2(C1)CN(C(=O)CC[C@@H]1COC(=O)N1)C2` [Example 153, 2-[[2-[3-[(4R)-2-Oxooxazolidin-4-yl]propanoyl]-2,6-diazaspiro[3.3]heptan-6-yl]methyl]benzene-sulfonamide], with 2330 nM; and `O=C1N[C@H](CCC(=O)N2CC3(CC(NS(=O)(=O)c4cccc(C(F)(F)F)c4)C3)C2)CO1` [Example 154, N-[2-[3-[(4R)-2-Oxooxazolidin-4-yl]propanoyl]-2-azaspiro[3.3]heptan-6-yl]-3-(trifluoromethyl) benzene-sulfonamide], with 95 nM; and `O=C1N[C@H](CCC(=O)N2CC(NCc3ccc(C(F)(F)F)cc3)C2)CO1` [Example 155, (4R)-4-[3-Oxo-3-[3-[[4-(trifluoromethyl)phenyl]methyl-amino]azetidin-1-yl]propyl] oxazolidin-2-one], with 284 nM.
On to `O=C1N[C@H](CCC(=O)N2CC(NCc3cc(C(F)(F)F)ccc3F)C2)CO1` [Example 156, (4R)-4-[3-[3-[[2-Fluoro-5-(trifluoro-methyl)phenyl]methylamino]azetidin-1-yl]-3-oxo-propyl] oxazolidin-2-one], for which inhibition was half-maximal at 279 nM (IC50).
Then `CS(=O)(=O)c1cc(F)ccc1CC1CC2(C1)CN(C(=O)CC[C@@H]1COC(=O)N1)C2` [Example 157, (4R)-4-[3-[6-[(4-Fluoro-2-methylsulfonyl-phenyl)methyl]-2-azaspiro[3.3]heptan-2-yl]-3-oxo-propyl]oxazolidin-2-one], with 25 nM; and `O=C1N[C@H](CCC(=O)N2CCC(CNS(=O)(=O)c3ccc(C(F)(F)F)cc3)CC2)CO1` [Example 158, N-[[1-[3-[(4R)-2-Oxooxazolidin-4-yl]propanoyl]-4-piperidyl]methyl]-4-(trifluoro-methyl)benzene-sulfonamide], with 582 nM.
Take `O=C1N[C@H](CCC(=O)N2CCC(CNS(=O)(=O)c3ccc(OC(F)(F)F)cc3)CC2)CO1` [Example 159, N-[[1-[3-[(4R)-2-Oxooxazolidin-4-yl]propanoyl]-4-piperidyl]methyl]-4-(trifluoro-methoxy)benzene-sulfonamide]: the IC50 was 434 nM.
Then `CC1(O)CN(c2ccc(C3CN(C(=O)CC[C@@H]4COC(=O)N4)C3)cn2)C1` [Example 160, (4R)-4-[3-[3-[6-(3-Hydroxy-3-methyl-azetidin-1-yl)-3-pyridyl]azetidin-1-yl]-3-oxo-propyl]oxazolidin-2-one], with 1330 nM.
The result for `O=C1N[C@H](CCC(=O)N2CC(c3ccc(N4CC(C(F)(F)F)C4)nc3)C2)CO1` [Example 161, (4R)-4-[3-Oxo-3-[3-[6-[3-(trifluoro-methyl)azetidin-1-yl]-3-pyridyl]azetidin-1-yl]propyl]oxazolidin-2-one] reads 65 nM; that for `CN(Cc1ccc(C(F)(F)F)cc1F)C1CN(C(=O)CC[C@@H]2COC(=O)N2)C1` [Example 162, (4R)-4-[3-[3-[[2-Fluoro-4-(trifluoromethyl)phenyl]methyl-methyl-amino]azetidin-1-yl]-3-oxo-propyl] oxazolidin-2-one], 108 nM.

These data come from patent US11981661B2, “Heterocyclic compounds” (Hoffmann-La Roche Inc., priority 2020, dated 2024).
